The values that follow come from patent publication US10159746B2, “Cyclodextrin complexation methods for formulating peptide proteasome inhibitors” (Onyx Therapeutics, Inc., priority 2012, dated 2018).

Molecules are shown by their SMILES. Converted amounts (≈) assume the structure as drawn.

Format in all cases: physicochemical
A short description of series [1]: Slurry-based complexation/solubilization of CFZ-API in SBECD with citric acid (Example 1). Conditions: SBECD/WFI/citric acid slurry, 2-8° C., mixed a further 24 hours. How it is done: In a 525 L stainless steel jacketed cooled tank controlled to 2° C.-8° C., a suspension of 2.0 kg carfilzomib-API (CFZ-API), 246 kg water for injection (WFI), and 100 kg sulfobutylether beta-cyclodextrin (SBECD) was prepared. Specifically, in the 525 L stainless steel jacketed cooled tank controlled to 2° C.-8° C., 100 kg SBECD was dissolved in 246 kg WFI. The Carfilzomib suspension was then prepared using 2.0 kg of CFZ-API. Mixing was performed using an impeller mixer to maintain suspension of the CFZ-API solids and dissolve the SBECD. In the same vessel, a probe style rotor-stator high shear mixer (homogenizer) was used as well as the low shear impeller. The high shear mixer was operated for approximately 1 hour yielding an even suspension and reduction of particle size for any larger primary particles or agglomerated API. After a suspension was achieved, 1.96 kg of citric acid was added as a 16% aqueous solution. The pH of the solution was then lowered inducing partial solubilization of the CFZ-API followed by and complexation due to the presence of SBECD. Mixing was continued for a further 24 hours with both the impeller and the high shear mixer and a dissolved concentration of CFZ-API of greater than 5.1 mg/mL was achieved. […]

The nature of series [2]: Chlorohydrin degradation product (CDP) formation in lyophilized carfilzomib/SBECD product by HPLC: pH, water and sodium chloride varied (Example 2). How it is done:
A multivariate statistical design of experiments was conducted to assess factors controlling the level of chlorohydrin degradation product as a function of processing parameters and storage time over six months. The complexation was performed in the proportion and parameters given in Example 1, with the following modifications: (i) the complexation process was performed at 2 L batch size; (ii) the final pH of solution before vial filling was varied for purposes of the experiment from 3.0, to 4.0; (iii) sodium chloride was spiked into SBECD in some experiments to create a high sodium chloride condition; (iv) water content of the lyophilized final product in stoppered vials was produced at high and low sodium chloride conditions via early termination and stoppering of vials to create a higher residual water content condition.
The solution of complexed carfilzomib for injection bulk solution pre-lyophilization included aqueous 5 mg/mL carfilzomib, 250 mg/mL Captisol® (SBECD) and 4.86 mg/mL citric acid, pH adjusted with aqueous sodium hydroxide. Compounding of the bulk solutions for lyophilization followed the procedure detailed in Example 1 with the following manipulations to create solutions with different specific attributes: • 1. pH was adjusted to 3.0 and 4.0 • 2. Sodium chloride was spiked into the Captisol® to create a “High Chloride” condition Captisol® manufactured by Cydex, a subsidiary of Ligand, has a standard product analysis range for sodium chloride from 0.05% to 0.2% (w/v). […] 400 g of this Captisol® was required per batch for the process to be performed at 2 L scale batches of complexation processing (in same proportions and general parameters per Example 1). To create the “high chloride” condition, 0.6 g of NaCl was added to 399.4 g of Captisol® which thus mimicked what a batch containing 0.2% chloride Captisol® would be comprised of.
In order to generate two (2) moisture content conditions in the final lyophilized vials, two (2) sets of 61.8 mg/vial (of CFZ-API) samples were lyophilized. The first cycle generated the “dry” sample set of vials containing approximately 0.6% residual water per Example 1 lyophilization parameters. For the second sample set, lyophilization was terminated and vials stoppered earlier in the secondary drying phase to generate the “wet” condition vials, with residual moisture approximately 2.4% water per vial initially.
The bulk solution of complexed carfilzomib was analyzed during manufacture by High Performance Liquid Chromatography (HPLC) to accurately quantify the concentration of dissolved and complexed carfilzomib drug substance. Subsequently, additional water was added to accurately dilute the bulk complexed solution. After this dilution step, HPLC was used again to ensure a target concentration of 5.0 mg/mL was achieved. Samples of the three (3) final bulk solutions were analyzed for potency and purity confirmation testing by HPLC. […] Karl Fischer Coulometry method was used for the water content determination in the lyophilized drug product.

A short description of series [3]: Compounding study: dissolved carfilzomib versus time in 25% (w/v) SBE-β-CD (Example 5). The note with it: CFZ-API suspension in 25% (w/v) SBE-β-CD solution, aqueous with cosolvent or surfactant or cyclodextrin, thermodynamic from solid, read-out: solubilized concentration during compounding. How it is done:
SBE-β-CD was dissolved in WFI to achieve 25% (w/v) solution. A suspension of CFZ-API in the SBE-β-CD solution was prepared by homogenization per the solubility study
API solids were added in all experiments to theoretically yield a ˜6 mg/mL final solution to mimic the commercial process
After homogenization, pH was lowered using citric acids to affect solubilization, while continuing mixing up 24 hours. Then, all preparations were adjusted to pH 3.5. Dissolved concentration as a function of time was measured by sampling, filtration, then HPLC analysis to monitor the kinetics of complexation in the slurry based process.

Consider `CC(C)C[C@H](NC(=O)[C@H](CCc1ccccc1)NC(=O)CN1CCOCC1)C(=O)N[C@@H](Cc1ccccc1)C(=O)N[C@@H](CC(C)C)C(=O)[C@@]1(C)CO1` [carfilzomib], for which the “dissolved concentration of CFZ-API” value in series [1] is recorded as “greater than 5.1 mg/mL”. Also, the “% Area of CDP after 6 months (HPLC data)” value in series [2] (5° C., pH 3.00, water 0.7%, sodium chloride 0.05%) turned out to be 0.00 % Area; in series [2] (5° C., pH 3.00, water 0.7%, sodium chloride 0.2%) it was 0.13 % Area; in series [2] (5° C., pH 3.00, water 2%, sodium chloride 0.05%), 0.02 % Area; in series [2] (5° C., pH 3.00, water 2%, sodium chloride 0.2%), 0.28 % Area; in series [2] (5° C., pH 4.00, water 0.7%, sodium chloride 0.05%), 0.00 % Area; in series [2] (5° C., pH 4.00, water 0.7%, sodium chloride 0.2%) it was 0.08 % Area. Further, the “% Area of CDP after 6 months (HPLC data)” value in series [2] (5° C., pH 4.00, water 2%, sodium chloride 0.05%) is 0.02 % Area; in series [2] (5° C., pH 4.00, water 2%, sodium chloride 0.2%), 0.18 % Area; in series [2] (25° C., pH 3.00, water 0.7%, sodium chloride 0.05%), 0.14 % Area; in series [2] (25° C., pH 3.00, water 0.7%, sodium chloride 0.2%), 0.70 % Area; in series [2] (25° C., pH 3.00, water 2%, sodium chloride 0.05%), 0.55 % Area; in series [2] (25° C., pH 4.00, water 0.7%, sodium chloride 0.05%), 0.09 % Area. In addition, the “% Area of CDP after 6 months (HPLC data)” value in series [2] (25° C., pH 4.00, water 0.7%, sodium chloride 0.2%) was 0.36 % Area; in series [2] (25° C., pH 4.00, water 2%, sodium chloride 0.05%), 0.35 % Area. In series [3] (first 2 hours), the solubility at 2 h was 4500 µg/mL (≈ 6.25 mM). Also, in series [3] (slow equilibration phase, in >20 hours), the solubility was determined as 5500 µg/mL (≈ 7.64 mM).
